{"source": "patent US20240219373A1", "about": "“METHOD FOR EVALUATING EFFICACY OF ANTICANCER DRUG OR SCREENING ANTICANCER DRUG” (ORGANOIDSCIENCES LTD., priority 2021, published 2024)", "assay_type_in_all_cases": "cell-based, human", "key": {"[1]": {"tested_on": "colorectal cancer organoids", "assay": "Growth and death rate of colorectal cancer organoids co-cultured with TILs", "description": "(§1) Specifically, the inventors set a mixing ratio satisfying co-culture conditions under which (1) cancer organoids grow properly and (2) drug efficacy is well observed. Cancer organoids were prepared using cancer cells isolated from tumor tissues of lung cancer or colorectal cancer patients, and TILs obtained by co-culture with cancer organoids for 14 days according to Example 1.1 were used.\n(§2) Herein, the number of organoids or TILs was set to 1 for 5.0×10^3.\n(§3) In addition, for the co-cultures of cancer organoids and TILs according to the ratio above, those not treated with the drug were set as the control group (hereinafter referred to as ‘drug-untreated group’), and those treated with atezolizumab, which is currently marketed and used for a cancer treatment, as an exemplary drug were set as the experimental group (hereinafter referred to as ‘drug-treated group’). After co-culturing for 72 hours, the growth rate was measured immediately after the start of the co-culture (0 h), after 24 hours (24 h), after 48 hours (48 h) and after 72 hours (72 h), respectively, and the death rate was analyzed by the following method through the measured growth rate: Cancer organoid death rate (%)=[1−(growth rate of cancer organoids in the drug-treated group*)/(growth rate of cancer organoids in the drug-untreated group**)]×100"}, "lung cancer organoids [2]": {"tested_on": "lung cancer organoids", "assay": "Growth and death rate of lung cancer organoids co-cultured with CD8+ T cells and DCs", "description": "(§4) Specifically, in order to establish a co-culture system in which cancer organoids, cytotoxic T cells (hereinafter referred to as ‘CD8+ T cells’) and dendritic cells (hereinafter referred to as ‘DC’) coexist, the inventors set a mixing ratio satisfying co-culture conditions under which (1) cancer organoids grow properly and (2) drug efficacy is well observed. […] Herein, the number of organoids or cells was set to 1 for 5.0×10^3.\n(§5) Cancer organoids were prepared to have a 3D structure by isolating colorectal cancer or lung cancer tissues obtained from patients into single cells and culturing them together with ECM (extracellular matrix). The formed cancer organoids were confirmed to be tumors through pathological analysis, and used after being isolated into single cells using Tryp-LE.\n(§6) CD8+ T cells isolated from PBMCs were used. PBMCs were isolated from blood obtained from donors by using Ficoll, and CD8+ T cells were isolated through MACS after a T cell activation process.\n(§7) DCs differentiated from iPSCs were used, and DCs were differentiated from the H9 cell line using a general method known in the art.\n(§8) Specifically, for the co-cultures of cancer organoids, CD8+ T cells and DCs according to the mixing ratio in Table 7 above, those not treated with the drug were set as the control group (hereinafter referred to as ‘drug-untreated group’), and those treated with an atezolizumab targeting CD8+ T cells as an exemplary drug were set as the experimental group (hereinafter referred to as ‘drug-treated group’). Drugs were treated immediately after the start of co-culture, and the growth rate of cancer organoids was measured immediately after the start of the co-culture (0 h), after 24 hours (24 h), after 48 hours (48 h) and after 72 hours (72 h), respectively. The death rate was analyzed by the following method through the measured growth rate."}, "[3]": {"tested_on": "colorectal cancer organoids", "assay": "Death rate of colorectal cancer organoids co-cultured with CD8+ T cells and Tregs", "settings": "72 h", "description": "(§9) Herein, the number of organoids or cells was set to 1 for 5.0×10^3.\n(§10) Cancer organoids were prepared using stem cells isolated from tumor tissue of colorectal cancer or lung cancer patients. The isolated stem cells were mixed with ECM (extracellular matrix) to grow into a 3D structure to make a dome, and then organoids were formed and used through culture. CD8+ T cells and Tregs were obtained from blood obtained from colorectal cancer or lung cancer patients. Immune cells present in the blood were differentiated, and CD8+ and Treg cells were isolated from the differentiated immune cells using a MACS (magnetic activated cell sorting) method.\n(§11) Specifically, for the co-cultures of cancer organoids, CD8+ T cells and Tregs according to the mixing ratio in Table 6 above, those not treated with the drug were set as the control group (hereinafter referred to as ‘drug-untreated group’), and those treated with an atezolizumab targeting CD8+ T cells or an anti-TIGIT antibody targeting CD8+ T cells or Tregs as an exemplary drug were set as the experimental group (hereinafter referred to as ‘drug-treated group’). After co-culturing them for 72 hours, the growth rate was measured after 72 hours of drug treatment (72 h), and the death rate was analyzed by the following method through the measured growth rate."}, "[4]": {"tested_on": "cancer organoids derived from colorectal cancer patients", "assay": "Overall efficacy (organoid area change, HCS) in co-culture of cancer organoids, CD8+ T cells and M1", "settings": "Groups 1, 3, 6 and 8: cancer organoids:M1 fixed 1:1, CD8+ T cell ratio changes; 10 nM; 72 hours", "text": "In order to confirm whether the screening system composed of cancer organoids, CD8+ T cells and M1 as confirmed in Example 1.1 can be used to evaluate the efficacy of a drug, the death rate of cancer organoids by phagocytosis was observed after treating the system with an anti-PD-L1 antibody atezolizumab previously used as an immuno-anticancer drug, anti-CD47 antibody and a combination thereof.\nAtezolizumab activates CD8+ T cells by binding to PD-L1 on cancer cells and blocking the PD-1/PD-L1 mechanism, and anti-CD47 antibody activates macrophages by binding to […] and blocking the SIRP-a/CD47 mechanism. […]\nThen, they were co-cultured, and treated with 10 nM of Atezolizumab (Selleck, #A2004) which is anti-PD-L1 antibody and/or 10 nM of anti-CD47 antibody. After that, the death rate of cancer organoids or M1 was analyzed at each ratio. Herein, the ratio of the CD8+ T cells and M1 was tested in a narrower range than the ratio applied in Example 1.1, and the changes in organoid area for 72 hours after drug treatment was analyzed by HCS (High-Content Screening). After 72 hours from drug treatment, the overall efficacy was evaluated by calculating the change in the organoid area of the drug-treated group compared to the organoid area of the non-treated group."}, "lung cancer organoids [5]": {"tested_on": "lung cancer organoids", "assay": "Death rate of lung cancer organoids co-cultured with CD8+ T cells and Tregs", "settings": "72 h", "description": "as §9, §10, §11"}, "[6]": {"tested_on": "colorectal cancer organoids", "assay": "Growth and death rate of colorectal cancer organoids co-cultured with CD8+ T cells and DCs", "description": "as §4, §5, §6, §7, §8"}, "lung cancer organoids [7]": {"tested_on": "lung cancer organoids", "assay": "Growth and death rate of lung cancer organoids co-cultured with TILs", "description": "as §1, §2, §3"}, "[8]": {"settings": "colorectal cancer organoids:TILs 1:0.5"}, "[9]": {"settings": "colorectal cancer organoids:TILs 1:1.5"}, "[10]": {"settings": "lung cancer organoids:TILs 1:0.5"}, "[11]": {"settings": "lung cancer organoids:TILs 1:1.5"}}, "data": [{"substance": "atezolizumab", "values": [{"measurement": "death rate of colorectal cancer organoids", "setting": "[1]; [8]", "result": "about 5%"}, {"measurement": "response of colorectal cancer organoids (growth rate and death rate vs control group)", "setting": "[1]; [8]", "result": "did not respond to the drug"}, {"measurement": "anticancer effects on colorectal cancer organoids (growth, death)", "setting": "[1]; [9]", "result": "inhibiting the growth and increasing death"}, {"measurement": "death rate of colorectal cancer organoids", "setting": "[1]; [9]", "result": "about 10%"}, {"measurement": "death rate of colorectal cancer organoids", "setting": "[1]; colorectal cancer organoids:TILs 1:3", "result": "about 5%"}, {"measurement": "death rate of cancer organoids, maximum level", "setting": "lung cancer organoids [2]; lung cancer organoids:CD8+ T cells 1:0.5, DC 0.5 to 5, 72 h", "result": "about 5%"}, {"measurement": "maximum death rate of cancer organoids", "setting": "lung cancer organoids [2]; lung cancer organoids:CD8+ T cells 1:1, DC 0.5 to 5, 72 h", "result": "about 10%"}, {"measurement": "growth of cancer organoids", "setting": "lung cancer organoids [2]; lung cancer organoids:CD8+ T cells:DCs 1:0.5:0.5 to 5 or 1:1:0.5 to 1", "result": "did not significantly inhibit the growth"}, {"measurement": "growth of cancer organoids", "setting": "lung cancer organoids [2]; lung cancer organoids:CD8+ T cells:DCs 1:1:5 or 1:3:0.5 to 5", "result": "inhibited the growth"}, {"measurement": "death rate of cancer organoids, maximum level", "setting": "[3]; colorectal cancer organoids:CD8+ T cells 1:1, Treg 0.5 to 3", "result": "about 10%"}, {"measurement": "death rate of cancer organoids", "setting": "[3]; colorectal cancer organoids:CD8+ T cells 1:3, with Tregs", "result": "about 25%"}, {"measurement": "death rate of cancer organoids", "setting": "[3]; colorectal cancer organoids:CD8+ T cells 1:3, without Tregs", "result": "about 26%"}, {"measurement": "death rate of cancer organoids", "setting": "[3]; colorectal cancer organoids:Tregs 1:3, without CD8+ T cells", "result": "about 2%"}, {"measurement": "growth inhibition and death of cancer organoids (overall efficacy)", "setting": "[4]", "result": "high"}, {"measurement": "death rate of cancer organoids, maximum level", "setting": "lung cancer organoids [5]; lung cancer organoids:CD8+ T cells 1:1, Treg 0.5 to 3", "result": "about 10%"}, {"measurement": "death rate of cancer organoids", "setting": "lung cancer organoids [5]; lung cancer organoids:CD8+ T cells 1:3, with Tregs", "result": "about 25%"}, {"measurement": "death rate of cancer organoids", "setting": "lung cancer organoids [5]; lung cancer organoids:CD8+ T cells 1:3, without Tregs", "result": "about 27%"}, {"measurement": "death rate of cancer organoids", "setting": "lung cancer organoids [5]; lung cancer organoids:Tregs 1:3, without CD8+ T cells", "result": "about 1%"}, {"measurement": "death rate of cancer organoids, maximum level", "setting": "[6]; colorectal cancer organoids:CD8+ T cells 1:0.5, DC 0.5 to 5, 72 h", "result": "about 5%"}, {"measurement": "maximum death rate of cancer organoids", "setting": "[6]; colorectal cancer organoids:CD8+ T cells 1:1, DC 0.5 to 5, 72 h", "result": "about 10%"}, {"measurement": "growth of cancer organoids", "setting": "[6]; colorectal cancer organoids:CD8+ T cells:DCs 1:0.5:0.5 to 5", "result": "did not significantly inhibit the growth"}, {"measurement": "growth of cancer organoids", "setting": "[6]; colorectal cancer organoids:CD8+ T cells:DCs 1:1 to 3:0.5 to 5", "result": "inhibited the growth"}, {"measurement": "death rate of lung cancer organoids", "setting": "lung cancer organoids [7]; [10]", "result": "about 5%"}, {"measurement": "response of lung cancer organoids (growth rate and death rate vs control group)", "setting": "lung cancer organoids [7]; [10]", "result": "did not respond to the drug"}, {"measurement": "anticancer effects on lung cancer organoids (growth, death)", "setting": "lung cancer organoids [7]; [11]", "result": "inhibiting the growth and increasing death"}, {"measurement": "death rate of lung cancer organoids", "setting": "lung cancer organoids [7]; [11]", "result": "about 20%"}, {"measurement": "death rate of lung cancer organoids", "setting": "lung cancer organoids [7]; lung cancer organoids:TILs 1:3", "result": "about 5%"}]}]}
